# Calls of active or inactive are those of the source. Unless noted, no cut-off for these calls is given here.
# Tests used:
# Format in all cases: functional
# [1] = target: T1, Kappa-type opioid receptor (Homo sapiens, UniProt P41145); assay: SAR analysis of Agonists of the Kappa Opioid Receptor (KOR) using an Image-Based Assay - Set 2. [Related pubchem assays (depositor defined):AID1777, AID1786, AID1966, AID2133, AID2136, AID2284, AID2285, AID2359]
# Mu-type opioid receptor [2] = target: T2, Mu-type opioid receptor (Homo sapiens, UniProt P35372); assay: SAR Analysis of Agonists of the MOR Receptor using an Image-Based Assay - Set 2. [Related pubchem assays (depositor defined):AID1777, AID1785, AID1786, AID1966, AID2133, AID2136, AID2284, AID2285, AID2352]
# [3] = target: T1, Kappa-type opioid receptor; assay: SAR analysis of Antagonists of the Kappa Opioid Receptor (KOR) using an Image-Based Assay - Set 2. [Related pubchem assays (depositor defined):AID1777, AID1785, AID1786, AID1966, AID2133, AID2136, AID2284, AID2285, AID2348]
# [4] = target: T3, Delta-type opioid receptor (Homo sapiens, UniProt P41143); assay: SAR Analysis of Antagonists of the DOR Receptor using an Image-Based Assay - Set 2. [Related pubchem assays (depositor defined):AID1777, AID1785, AID1786, AID1966, AID2133, AID2136, AID2284, AID2285, AID2357]
# [5] = target: T3, Delta-type opioid receptor; assay: SAR Analysis of Agonists of the DOR Receptor using an Image-Based Assay - Set 2. [Related pubchem assays (depositor defined):AID1777, AID1785, AID1786, AID1966, AID2133, AID2136, AID2284, AID2285, AID2370]
# [6] = target: T1, Kappa-type opioid receptor; assay: SAR analysis of small molecule agonists of the kappa opioid receptor via a luminescent beta-arrestin assay - Set 2. [Related pubchem assays (depositor defined):AID1777, AID1785, AID1786, AID1966, AID2133, AID2136, AID2284, AID449737]
# Mu-type opioid receptor [7] = target: T2, Mu-type opioid receptor; assay: SAR Analysis of Antagonists of the MOR Receptor using an Image-Based Assay - Set 2. [Related pubchem assays (depositor defined):AID1777, AID1785, AID1786, AID1966, AID2133, AID2136, AID2284, AID2285, AID2420]
# [8] = target: Voltage-dependent T-type calcium channel subunit alpha-1H (Homo sapiens, UniProt O95180); assay: inhibition of CACNA1H calcium flux – cell-based, SynthLib3 library, HEK293 Cav3.2, fluorescence (AID 493041)
# Sequence of Voltage-dependent T-type calcium channel subunit alpha-1H (O95180 whole entry): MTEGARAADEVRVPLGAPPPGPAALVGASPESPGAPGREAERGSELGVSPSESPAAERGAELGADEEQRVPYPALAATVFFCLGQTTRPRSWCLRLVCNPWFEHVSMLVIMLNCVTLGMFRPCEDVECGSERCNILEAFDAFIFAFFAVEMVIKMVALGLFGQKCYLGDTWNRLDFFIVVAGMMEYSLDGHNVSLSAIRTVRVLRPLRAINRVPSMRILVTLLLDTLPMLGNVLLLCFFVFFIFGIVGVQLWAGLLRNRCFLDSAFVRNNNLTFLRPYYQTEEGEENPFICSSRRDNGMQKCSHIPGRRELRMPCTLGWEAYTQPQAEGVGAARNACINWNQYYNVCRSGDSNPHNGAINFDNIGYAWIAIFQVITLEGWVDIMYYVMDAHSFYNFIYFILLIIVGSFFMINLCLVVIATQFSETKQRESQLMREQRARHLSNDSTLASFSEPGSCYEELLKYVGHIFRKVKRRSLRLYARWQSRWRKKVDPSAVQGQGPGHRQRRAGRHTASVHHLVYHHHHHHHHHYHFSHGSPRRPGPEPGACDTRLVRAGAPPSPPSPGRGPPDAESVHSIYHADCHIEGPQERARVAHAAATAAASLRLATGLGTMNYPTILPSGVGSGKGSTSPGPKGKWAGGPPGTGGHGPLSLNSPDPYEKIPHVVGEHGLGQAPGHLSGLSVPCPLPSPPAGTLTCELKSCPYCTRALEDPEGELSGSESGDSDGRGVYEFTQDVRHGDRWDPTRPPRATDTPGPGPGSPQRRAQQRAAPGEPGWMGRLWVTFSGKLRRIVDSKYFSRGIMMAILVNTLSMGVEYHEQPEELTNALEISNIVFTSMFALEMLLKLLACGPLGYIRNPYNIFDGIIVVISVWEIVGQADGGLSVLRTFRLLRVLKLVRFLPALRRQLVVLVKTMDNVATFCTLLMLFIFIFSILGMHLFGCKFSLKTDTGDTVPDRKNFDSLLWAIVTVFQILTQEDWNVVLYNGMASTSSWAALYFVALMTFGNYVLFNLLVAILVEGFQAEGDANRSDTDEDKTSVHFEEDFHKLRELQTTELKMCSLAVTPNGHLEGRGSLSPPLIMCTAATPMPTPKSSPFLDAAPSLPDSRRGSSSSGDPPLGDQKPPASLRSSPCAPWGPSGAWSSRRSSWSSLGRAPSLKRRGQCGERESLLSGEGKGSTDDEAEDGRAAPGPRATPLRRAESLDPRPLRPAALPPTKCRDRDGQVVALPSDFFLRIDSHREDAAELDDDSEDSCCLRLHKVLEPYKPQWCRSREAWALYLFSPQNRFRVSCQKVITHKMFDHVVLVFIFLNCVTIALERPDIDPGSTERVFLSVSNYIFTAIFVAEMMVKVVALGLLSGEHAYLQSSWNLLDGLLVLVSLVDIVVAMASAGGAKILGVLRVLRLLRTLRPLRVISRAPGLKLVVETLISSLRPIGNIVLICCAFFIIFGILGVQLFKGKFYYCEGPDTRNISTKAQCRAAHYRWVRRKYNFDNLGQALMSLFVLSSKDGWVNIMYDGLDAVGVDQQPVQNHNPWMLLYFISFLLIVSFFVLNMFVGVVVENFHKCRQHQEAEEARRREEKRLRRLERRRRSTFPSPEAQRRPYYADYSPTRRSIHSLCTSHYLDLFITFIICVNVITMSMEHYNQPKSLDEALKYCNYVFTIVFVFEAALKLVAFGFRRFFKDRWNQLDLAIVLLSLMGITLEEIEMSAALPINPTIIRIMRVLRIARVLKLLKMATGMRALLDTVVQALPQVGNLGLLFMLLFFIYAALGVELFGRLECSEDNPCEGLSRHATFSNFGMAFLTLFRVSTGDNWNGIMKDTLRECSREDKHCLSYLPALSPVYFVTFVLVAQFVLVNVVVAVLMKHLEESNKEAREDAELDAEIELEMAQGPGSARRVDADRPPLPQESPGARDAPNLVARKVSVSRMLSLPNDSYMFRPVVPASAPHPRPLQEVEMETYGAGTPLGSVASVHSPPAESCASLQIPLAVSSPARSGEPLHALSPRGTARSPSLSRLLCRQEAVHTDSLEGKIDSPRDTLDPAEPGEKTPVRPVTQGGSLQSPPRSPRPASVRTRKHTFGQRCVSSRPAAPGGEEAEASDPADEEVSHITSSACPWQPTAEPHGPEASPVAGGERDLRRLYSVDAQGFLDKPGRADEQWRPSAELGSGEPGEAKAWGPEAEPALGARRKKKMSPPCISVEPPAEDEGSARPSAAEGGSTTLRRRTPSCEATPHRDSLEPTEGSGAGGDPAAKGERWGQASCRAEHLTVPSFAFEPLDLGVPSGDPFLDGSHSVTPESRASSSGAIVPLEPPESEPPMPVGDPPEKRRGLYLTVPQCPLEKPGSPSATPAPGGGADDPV
# T1 sequence (P41145 whole entry): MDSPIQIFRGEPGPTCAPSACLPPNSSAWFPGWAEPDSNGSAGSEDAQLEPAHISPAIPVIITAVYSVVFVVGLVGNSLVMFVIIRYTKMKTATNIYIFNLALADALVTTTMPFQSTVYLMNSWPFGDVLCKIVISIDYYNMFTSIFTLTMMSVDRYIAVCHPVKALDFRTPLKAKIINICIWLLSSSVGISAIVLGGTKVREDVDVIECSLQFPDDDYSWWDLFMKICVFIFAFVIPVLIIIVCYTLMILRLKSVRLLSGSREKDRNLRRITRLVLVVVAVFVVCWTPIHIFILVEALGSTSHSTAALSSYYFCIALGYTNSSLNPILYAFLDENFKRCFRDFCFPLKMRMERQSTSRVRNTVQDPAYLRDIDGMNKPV
# T3 sequence (P41143 whole entry): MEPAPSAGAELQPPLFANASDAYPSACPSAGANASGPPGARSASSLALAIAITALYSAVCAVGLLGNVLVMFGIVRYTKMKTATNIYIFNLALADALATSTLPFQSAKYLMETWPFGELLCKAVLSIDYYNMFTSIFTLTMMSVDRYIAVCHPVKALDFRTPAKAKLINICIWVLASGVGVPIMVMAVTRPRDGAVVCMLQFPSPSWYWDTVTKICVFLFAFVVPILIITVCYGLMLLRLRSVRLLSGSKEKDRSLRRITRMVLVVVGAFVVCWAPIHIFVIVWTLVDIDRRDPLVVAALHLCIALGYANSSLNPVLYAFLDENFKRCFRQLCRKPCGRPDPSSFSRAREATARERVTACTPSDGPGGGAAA
# T2 sequence (P35372 whole entry): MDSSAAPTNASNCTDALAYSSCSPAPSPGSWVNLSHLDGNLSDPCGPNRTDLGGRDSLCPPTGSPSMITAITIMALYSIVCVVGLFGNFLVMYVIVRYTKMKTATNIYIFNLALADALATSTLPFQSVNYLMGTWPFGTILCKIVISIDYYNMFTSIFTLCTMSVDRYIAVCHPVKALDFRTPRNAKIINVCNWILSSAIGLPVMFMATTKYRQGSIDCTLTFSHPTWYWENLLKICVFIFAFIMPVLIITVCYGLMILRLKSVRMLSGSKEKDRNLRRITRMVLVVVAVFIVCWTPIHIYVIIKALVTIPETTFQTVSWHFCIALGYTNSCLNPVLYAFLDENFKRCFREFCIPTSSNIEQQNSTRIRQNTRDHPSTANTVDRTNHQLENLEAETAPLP
SMILES,EC50 [1],EC50 (Mu-type opioid receptor [2]),IC50 [3],IC50 [4],EC50 [5],EC50 [6],IC50 (Mu-type opioid receptor [7]),EC50 [8]
c1ccc(CSc2nnc(-c3ccccn3)n2Cc2cccs2)cc1,23.5 µM (inactive),> 32 µM (inactive),> 32 µM (inactive),> 32 µM (inactive),> 32 µM (inactive),13.9 µM (inactive),> 32 µM (inactive),
CC(C)(C)CCN1C[C@@H]2C(CNC(=O)c3cc(Cl)cc(Cl)c3)[C@@H]2C1 (stereo partly drawn),,,,,,,,0.17 µM (active)

# Reference: ChEMBL document CHEMBL1201862, “PubChem BioAssay data set” (2004)
